Measurements reported in US20010044437A1, “Methods for reducing uric acid levels” (priority 2000, published 2001).

Tested on: serum uric acid
Test: Serum uric acid during 28-day once-daily oral dosing, placebo-controlled study in 48 subjects (Example 34)
Assay type: in vivo, human
Protocol: In another study, 48 subjects were divided into four groups, A, B, C and D, and administered the noted amount of the compound of Example 3. Each group was composed of 12 subjects of whom 9 received the compound and 3 received placebo. The non-placebo members of group A received 50 mg of compound, administered orally once a day for 28 days as a single 50 mg tablet. The non-placebo members of group B received 200 mg of compound administered orally once a day for 28 days as a single 200 mg tablet. The non-placebo members of group C received 500 mg of compound administered orally once a day for 28 days as two 50 mg tablets and two 200 mg tablets. The non-placebo members of group D received 800 mg of compound administered orally once a day for 28 days as four 200 mg tablets. The 3 placebo members of each group, received an amount of placebo, as a tablet, equivalent to the amount of test compound—50 mg placebo for group A, 200 mg placebo for group B, 500 mg placebo for group C and 800 mg placebo for group D. Each subject received a single dose of either compound or placebo for 28 days. The subjects were confined at the clinical site beginning the day before dose administration until 72 hours after the final dose administration on Day 28 and returned for an outpatient visit on Day 35.
Uric acid levels were measured prior to beginning the study (screening), on the day immediately prior to commencement of the study (day-1), and then as noted in the table. Hours indicates the time since the last dose was administered. For example, Day 7, 0 hour indicates the time the serum uric acid level at the time the dose was administered and Day 7, 2 hour indicates the uric acid level two hours after the adminstration that day. Further, the Day 30, 60 hour level is the serum uric acid level measured 60 hours (on Day 30) after the last dose was administered on Day 28. The uric acid levels are presented in mg/dL as a mean of all subjects in each group.

For `O=C(O)Cn1cc(Cc2nc3c(F)c(F)cc(F)c3s2)c2ccccc21` [Example 3, 3-(4,5,7-Trifluorobenzothiazol-2-yl)methyl-indole-N-acetic Acid], the “Uric Acid Level (mean of all subjects in each group)” value (from here on “Uric Acid Level”) (group A 50 mg orally once a day, Day 1 8 Hour) was 3.94 mg/dL, the “Uric Acid Level” value (group A 50 mg orally once a day, Day 1 10 Hour) was 3.87 mg/dL and the “Uric Acid Level” value (group A 50 mg orally once a day, Day 1 12 Hour) was 3.89 mg/dL. The “Uric Acid Level” value (group A 50 mg orally once a day, Day 1 16 Hour) was 3.98 mg/dL, the “Uric Acid Level” value (group A 50 mg orally once a day, Day 1 24 Hour) was 4.19 mg/dL and the “Uric Acid Level” value (group A 50 mg orally once a day, Day 3) was 3.62 mg/dL. For the same molecule, the “Uric Acid Level” value (group A 50 mg orally once a day, Day 7 0 Hour) was 3.36 mg/dL, the “Uric Acid Level” value (group A 50 mg orally once a day, Day 7 0.5 Hour) was 3.33 mg/dL and the “Uric Acid Level” value (group A 50 mg orally once a day, Day 7 1 Hour) was 3.28 mg/dL. For the same molecule, the “Uric Acid Level” value (group A 50 mg orally once a day, Day 7 2 Hour) was 3.14 mg/dL, the “Uric Acid Level” value (group A 50 mg orally once a day, Day 7 3 Hour) was 3.03 mg/dL and the “Uric Acid Level” value (group A 50 mg orally once a day, Day 7 4 Hour) was 2.99 mg/dL. The “Uric Acid Level” value (group A 50 mg orally once a day, Day 7 6 Hour) was 3.30 mg/dL, the “Uric Acid Level” value (group A 50 mg orally once a day, Day 7 8 Hour) was 3.34 mg/dL and the “Uric Acid Level” value (group A 50 mg orally once a day, Day 7 10 Hour) was 3.36 mg/dL. The “Uric Acid Level” value (group A 50 mg orally once a day, Day 7 12 Hour) was 3.26 mg/dL, the “Uric Acid Level” value (group A 50 mg orally once a day, Day 7 16 Hour) was 3.07 mg/dL and the “Uric Acid Level” value (group A 50 mg orally once a day, Day 7 24 Hour) was 3.48 mg/dL. For the same molecule, the “Uric Acid Level” value (group A 50 mg orally once a day, Day 14 0 Hour) was 3.51 mg/dL, the “Uric Acid Level” value (group A 50 mg orally once a day, Day 14 0.5 Hour) was 3.43 mg/dL and the “Uric Acid Level” value (group A 50 mg orally once a day, Day 14 1 Hour) was 3.41 mg/dL. For the same molecule, the “Uric Acid Level” value (group A 50 mg orally once a day, Day 14 2 Hour) was 3.37 mg/dL, the “Uric Acid Level” value (group A 50 mg orally once a day, Day 14 3 Hour) was 3.19 mg/dL and the “Uric Acid Level” value (group A 50 mg orally once a day, Day 14 4 Hour) was 3.17 mg/dL. For the same molecule, the “Uric Acid Level” value (group A 50 mg orally once a day, Day 14 6 Hour) was 3.38 mg/dL, the “Uric Acid Level” value (group A 50 mg orally once a day, Day 14 8 Hour) was 3.34 mg/dL and the “Uric Acid Level” value (group A 50 mg orally once a day, Day 14 10 Hour) was 3.24 mg/dL. For the same molecule, the “Uric Acid Level” value (group B 200 mg orally once a day, Day 1 8 Hour) was 3.37 mg/dL, the “Uric Acid Level” value (group B 200 mg orally once a day, Day 1 10 Hour) was 3.16 mg/dL and the “Uric Acid Level” value (group B 200 mg orally once a day, Day 1 12 Hour) was 3.12 mg/dL. The “Uric Acid Level” value (group B 200 mg orally once a day, Day 1 16 Hour) was 3.01 mg/dL, the “Uric Acid Level” value (group B 200 mg orally once a day, Day 1 24 Hour) was 3.64 mg/dL and the “Uric Acid Level” value (group B 200 mg orally once a day, Day 3) was 2.94 mg/dL. The “Uric Acid Level” value (group B 200 mg orally once a day, Day 7 0 Hour) was 2.86 mg/dL, the “Uric Acid Level” value (group B 200 mg orally once a day, Day 7 0.5 Hour) was 2.79 mg/dL and the “Uric Acid Level” value (group B 200 mg orally once a day, Day 7 1 Hour) was 2.74 mg/dL. For the same molecule, the “Uric Acid Level” value (group B 200 mg orally once a day, Day 7 2 Hour) was 2.61 mg/dL, the “Uric Acid Level” value (group B 200 mg orally once a day, Day 7 3 Hour) was 2.50 mg/dL and the “Uric Acid Level” value (group B 200 mg orally once a day, Day 7 4 Hour) was 2.47 mg/dL. The “Uric Acid Level” value (group B 200 mg orally once a day, Day 7 6 Hour) was 2.72 mg/dL, the “Uric Acid Level” value (group B 200 mg orally once a day, Day 7 8 Hour) was 2.54 mg/dL and the “Uric Acid Level” value (group B 200 mg orally once a day, Day 7 10 Hour) was 2.53 mg/dL. The “Uric Acid Level” value (group B 200 mg orally once a day, Day 7 12 Hour) was 2.44 mg/dL, the “Uric Acid Level” value (group B 200 mg orally once a day, Day 7 16 Hour) was 2.43 mg/dL and the “Uric Acid Level” value (group B 200 mg orally once a day, Day 7 24 Hour) was 2.70 mg/dL. The “Uric Acid Level” value (group B 200 mg orally once a day, Day 14 0 Hour) was 2.87 mg/dL, the “Uric Acid Level” value (group C 500 mg orally once a day, Day 1 0 Hour) was 5.16 mg/dL and the “Uric Acid Level” value (group C 500 mg orally once a day, Day 1 0.5 Hour) was 5.08 mg/dL. The “Uric Acid Level” value (group C 500 mg orally once a day, Day 1 1 Hour) was 4.81 mg/dL, the “Uric Acid Level” value (group C 500 mg orally once a day, Day 1 2 Hour) was 4.27 mg/dL and the “Uric Acid Level” value (group C 500 mg orally once a day, Day 1 3 Hour) was 3.84 mg/dL. The “Uric Acid Level” value (group C 500 mg orally once a day, Day 1 4 Hour) was 3.54 mg/dL, the “Uric Acid Level” value (group C 500 mg orally once a day, Day 1 6 Hour) was 3.30 mg/dL and the “Uric Acid Level” value (group C 500 mg orally once a day, Day 1 8 Hour) was 2.82 mg/dL. For the same molecule, the “Uric Acid Level” value (group C 500 mg orally once a day, Day 1 10 Hour) was 2.59 mg/dL and the “Uric Acid Level” value (group C 500 mg orally once a day, Day 1 12 Hour) was 2.56 mg/dL.
